Test results published in patent US11123311B2, “Methods of treating mental disorders” (The Regents of the University of California, priority 2016, dated 2021).

How the values were obtained:
[1] = system: PC12 cells; assay: NGF-induced neurite outgrowth in PC12 cells; assay type: cell-based; details: TPPU 0.1, 1.0 or 10 μM, 14,15-EET 0.01, 0.1 or 1.0 μM, concentration dependent
Procedure: PC12 cells (RIKEN Cell Bank, Tsukuba, Japan) were cultured at 37° C., 5% CO2 in Dulbecco's modified Eagle's medium (DMEM), supplemented with 5% heat-inactivated fetal bovine serum (FBS), 10% heat-inactivated horse serum, and 1% penicillin-streptomycin. Medium was changed two to three times a week. PC12 cells were plated onto 24-well tissue culture plates coated with poly-D-lysine/laminin. Cells were plated at relatively low density (0.25×10^4 cells/cm^2) in DMEM medium containing 0.5% FBS, 1% penicillin-streptomycin. Medium containing a minimal level of serum (0.5% FBS) was used as previously reported (58-60). […]. Four days after incubation with NGF (2.5 ng/ml) with or without specified compounds, morphometric analysis was performed on digitized images of live cells taken under phase-contrast illumination, with an inverted microscope linked to a camera. Images of three fields per well were taken, with an average of 100 cells per field. Differentiated cells were counted by visual examination of the field; only cells that had at least one neurite with a length equal to the cell body diameter were counted, and were then expressed as a percentage of the total cells in the field. Counting was performed in a blinded manner.

[2] = system: neuronal cell cultures; details: literature (34); cited from earlier work
[3] = system: astrocyte; details: literature (54); cited from earlier work
[4] = target: T1, sEH (Homo sapiens (Human), UniProt P34913); assay: inhibition of sEH (standard assays); assay type: biochemical
T1 sequence (P34913 whole entry): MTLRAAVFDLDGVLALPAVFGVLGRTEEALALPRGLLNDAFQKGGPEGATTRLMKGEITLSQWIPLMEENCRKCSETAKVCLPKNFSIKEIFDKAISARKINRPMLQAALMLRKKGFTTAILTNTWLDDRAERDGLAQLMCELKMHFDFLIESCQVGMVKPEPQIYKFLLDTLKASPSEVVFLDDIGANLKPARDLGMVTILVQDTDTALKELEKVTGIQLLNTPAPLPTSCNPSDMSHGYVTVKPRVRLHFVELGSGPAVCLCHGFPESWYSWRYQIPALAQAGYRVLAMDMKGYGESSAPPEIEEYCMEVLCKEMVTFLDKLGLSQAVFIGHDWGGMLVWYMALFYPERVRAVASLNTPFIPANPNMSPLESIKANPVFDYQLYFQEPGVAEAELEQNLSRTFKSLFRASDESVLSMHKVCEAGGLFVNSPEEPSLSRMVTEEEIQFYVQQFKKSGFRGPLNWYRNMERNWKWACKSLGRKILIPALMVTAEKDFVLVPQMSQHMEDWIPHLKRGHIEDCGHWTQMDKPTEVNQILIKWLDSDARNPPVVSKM
Description: Any of a number of standard assays for determining epoxide hydrolase activity can be used to determine inhibition of sEH. […] Suitable in vitro assays are described in Zeldin et al., J Biol. Chem. 268:6402-6407 (1993). Suitable in vivo assays are described in Zeldin et al., Arch Biochem Biophys 330:87-96 (1996).
The enzyme also can be detected based on the binding of specific ligands to the catalytic site which either immobilize the enzyme or label it with a probe such as dansyl, fluoracein, luciferase, green fluorescent protein or other reagent. The enzyme can be assayed by its hydration of EETs, its hydrolysis of an epoxide to give a colored product as described by Dietze et al., 1994, supra, or its hydrolysis of a radioactive surrogate substrate (Borhan et al., 1995, supra). The enzyme also can be detected based on the generation of fluorescent products following the hydrolysis of the epoxide. Numerous methods of epoxide hydrolase detection have been described (see, e.g., Wixtrom, supra).
The assays are normally carried out with a recombinant enzyme following affinity purification. They can be carried out in crude tissue homogenates, cell culture or even in vivo, as known in the art and described in the references cited above.

[5] = experimental logP; assay type: physicochemical; details: read-out: Exp/ logP
[6] = target: T1, sEH
[7] = system: mice after social defeat stress; details: single dose; literature (37,39); cited from earlier work
[8] = system: TNF-α; assay: serum TNF-α after LPS administration; assay type: in vivo; details: TPPU 3.0 mg/kg PO
Procedure: Inflammation model of depression. The procedure of inflammation model of depression was performed as previously reported (36). Behavioral tests were performed 24 hours after a single administration of LPS (0.5 mg/kg). […] Serum sample was collected 90 min after LPS administration, and serum levels of TNF-α were measured using a Ready-SET-Go ELISA kit (eBioscience Inc., San Diego, Calif.), according to manufacturer's instructions. […] Behavioral tests including locomotion (LMT), tail suspension test (TST), and forced swimming test (FST) were performed 1, 3, and 5 hours after administration. […] Behavioral tests including LMT, TST, and FST were performed 24, 26, and 28 hours after administration of LPS.

[9] = 3 mg/kg PO; mice
[10] = in vivo; details: mouse, po, 3 mg/kg, 3 mg/kg PO, mice
[11] = system: LPS-treated depressed mice; details: literature (36); cited from earlier work

## CCCCCC1OC1C/C=C\C/C=C\C/C=C\CCCC(=O)O (stereo not drawn) [14,15-EET]
[1]
  NGF-induced neurite outgrowth: potentiated
[2]
  axonal growth: enhance axonal growth
[3]
  production of BDNF: promote the production of BDNF

## CCCCCCCCCCCCNC(=O)NC12CC3CC(CC(C3)C1)C2 [ADU, N-Adamantyl-N′-dodecyl urea]
[4]
  activity as an inhibitor of sEH: particularly high activity

## O=C(Nc1ccc(OC(F)(F)F)cc1)NC1CCN(C(=O)C2(C(F)(F)F)CC2)CC1 [Compound 28]
[5]
  logP: 4.63

## CC[C@H](C)C(=O)N1CCC(NC(=O)Nc2ccc(C(F)(F)F)nc2)CC1 [Compound 42]
[5]
  logP: 3.22
[6]
  t1/2 (human sEH): 0.0617 h

## CC(C)C(=O)N1CCC(NC(=O)Nc2ccc(OC(F)(F)F)cc2)CC1 [Compound 2389]
[5]
  logP: 3.37
[6]
  t1/2 (human sEH): 0.3 h

## CN[C@@]1(c2ccccc2Cl)CCCCC1=O [R-ketamine]
[7]
  antidepressant effect in the social defeat stress model: rapid antidepressant effect

## CCC(=O)N1CCC(NC(=O)Nc2ccc(OC(F)(F)F)cc2)CC1 [TPPU]
[8]
  serum levels of TNF-α in control mice: no effect
[9]
  half-life in the blood (plasma): 17.8 h
  half-life in the cerebral cortex: 10.7 h
[10]; half-life in the blood (plasma)
  half-life: 17.8 h
[10]; half-life in the cerebral cortex
  half-life: 10.7 h

## CNC1(c2ccccc2Cl)CCCCC1=O (stereo not drawn) [ketamine]
[7]
  antidepressant effect in the social defeat stress model: rapid antidepressant effect

## Fc1ccc([C@@H]2CCNC[C@H]2COc2ccc3c(c2)OCO3)cc1 [paroxetine]
[11]
  effect in the LPS-induced inflammation model of depression: do not have any effect

## COc1ccc(C(CN(C)C)C2(O)CCCCC2)cc1 (stereo not drawn) [venlafaxine]
[11]
  effect in the LPS-induced inflammation model of depression: do not have any effect
